Reference: ChEMBL document CHEMBL1201862, “PubChem BioAssay data set” (2004)
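Cells were grown in 96-well plates and exposed to each compound for 48 hours at five concentrations; endpoints were interpolated linearly between bracketing concentrations, or set to the highest concentration if not reached. At the GI50, growth is halved.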 The source made the active and inactive calls. No stated cut-off is given here; in the data, active = GI50 up to about 1.1 µM and inactive = higher.

Legend:
Assay in all cases: growth of human tumour cells (NCI), 48 h
[1] = test system: NCI-H522
[2] = test system: HOP-62
[3] = test system: SF-295
[4] = test system: XF498
[5] = test system: SF-539
[6] = test system: A549
[7] = test system: TK-10
[8] = test system: SNB-78
[9] = test system: SK-MEL-28
[10] = test system: ACHN
[11] = test system: SW-620
[12] = test system: HL-60
[13] = test system: SNB-75
[14] = test system: LXFL 529
[15] = test system: COLO 205
[16] = test system: OVCAR-4
[17] = test system: MOLT-4
[18] = test system: HOP-92
[19] = test system: SK-OV-3
[20] = test system: HCT-116
[21] = test system: M14
[22] = test system: RXF 393
[23] = test system: SN12C
[24] = test system: NCI-H460
[25] = test system: OVCAR-8
[26] = test system: HOP-18
[27] = test system: HCC 2998
[28] = test system: CAKI-1
[29] = test system: 786-0
[30] = test system: M19-MEL
[31] = test system: A498
[32] = test system: OVCAR-3
[33] = test system: UACC-257
[34] = test system: HT-29
[35] = test system: NCI-H23
[36] = test system: EKVX
[37] = test system: CCRF-CEM
[38] = test system: SR
[39] = test system: DMS-114
[40] = test system: UO-31
[41] = test system: UACC-62
[42] = test system: DMS-273
[43] = test system: KM-20L2
[44] = test system: SF-268
[45] = test system: RXF 631
[46] = test system: SNB-19
[47] = test system: SK-MEL-5
[48] = test system: IGROV-1
[49] = test system: HCT-15
[50] = test system: SK-MEL-2
[51] = test system: DLD-1
[52] = test system: NCI-H226
[53] = test system: Malme-3M
[54] = test system: KM12
[55] = test system: U-251
[56] = test system: Hs-578T
[57] = test system: OVCAR-5
[58] = test system: RPMI-8226
[59] = test system: K562
[60] = test system: DU-145
[61] = test system: MCF7
[62] = test system: MDA-MB-435
[63] = test system: BT-549
[64] = test system: T47D
[65] = test system: MDA-N
[66] = test system: LOX IMVI
[67] = test system: MDA-MB-231
[68] = test system: PC-3

Cc1ccc(C)c(N2C(=O)C(=O)C(c3nc4ccccc4s3)/C(=N/NC(=O)NN)C2=O)c1 (stereo not drawn)
GI50 [1]: > 100 µM (inactive)
GI50 [2]: > 100 µM (inactive)
GI50 [3]: > 100 µM (inactive)
GI50 [4]: > 100 µM (inactive)
GI50 [5]: > 100 µM (inactive)
GI50 [6]: > 100 µM (inactive)
GI50 [7]: > 100 µM (inactive)
GI50 [8]: > 100 µM (inactive)
GI50 [9]: > 100 µM (inactive)
GI50 [10]: > 100 µM (inactive)
GI50 [11]: > 100 µM (inactive)
GI50 [12]: > 100 µM (inactive)
GI50 [13]: > 100 µM (inactive)
GI50 [14]: > 100 µM (inactive)
GI50 [15]: > 100 µM (inactive)
GI50 [16]: > 100 µM (inactive)
GI50 [17]: > 100 µM (inactive)
GI50 [18]: > 100 µM (inactive)
GI50 [19]: > 100 µM (inactive)
GI50 [20]: > 100 µM (inactive)
GI50 [21]: > 100 µM (inactive)
GI50 [22]: > 100 µM (inactive)
GI50 [23]: > 100 µM (inactive)
GI50 [24]: > 100 µM (inactive)
GI50 [25]: > 100 µM (inactive)
GI50 [26]: > 100 µM (inactive)
GI50 [27]: > 100 µM (inactive)
GI50 [28]: > 100 µM (inactive)
GI50 [29]: > 100 µM (inactive)
GI50 [30]: > 100 µM (inactive)
GI50 [31]: > 100 µM (inactive)
GI50 [32]: > 100 µM (inactive)
GI50 [33]: > 100 µM (inactive)
GI50 [34]: > 100 µM (inactive)
GI50 [35]: > 100 µM (inactive)
GI50 [36]: > 100 µM (inactive)
GI50 [37]: > 100 µM (inactive)
GI50 [38]: > 100 µM (inactive)
GI50 [39]: > 100 µM (inactive)
GI50 [40]: > 100 µM (inactive)
GI50 [41]: > 100 µM (inactive)
GI50 [42]: > 100 µM (inactive)
GI50 [43]: > 100 µM (inactive)
GI50 [44]: > 100 µM (inactive)
GI50 [45]: > 100 µM (inactive)
GI50 [46]: > 100 µM (inactive)
GI50 [47]: > 100 µM (inactive)
GI50 [48]: > 100 µM (inactive)
GI50 [49]: > 100 µM
GI50 [50]: > 100 µM (inactive)
GI50 [51]: > 100 µM (inactive)
GI50 [52]: > 100 µM (inactive)
GI50 [53]: > 100 µM (inactive)
GI50 [54]: > 100 µM (inactive)
GI50 [55]: > 100 µM (inactive)

COc1ccccc1NC(=O)C1=C(C)NC(C)=C(C(=O)Nc2ccccc2OC)C1c1ccco1
GI50 [1]: 2.66 µM (inactive)
GI50 [56]: 3.1 µM (inactive)
GI50 [2]: 6.28 µM (inactive)
GI50 [3]: 4.31 µM (inactive)
GI50 [4]: 6.01 µM (inactive)
GI50 [5]: 4.13 µM (inactive)
GI50 [6]: 5.18 µM (inactive)
GI50 [7]: 19.5 µM (inactive)
GI50 [8]: 9.1 µM (inactive)
GI50 [9]: 19.7 µM (inactive)
GI50 [10]: 6.41 µM (inactive)
GI50 [11]: 4.49 µM (inactive)
GI50 [12]: 0.638 µM (active)
GI50 [13]: 3.37 µM (inactive)
GI50 [14]: 5.15 µM (inactive)
GI50 [15]: 5.56 µM (inactive)
GI50 [16]: 8.57 µM (inactive)
GI50 [17]: 3.87 µM (inactive)
GI50 [18]: 3.98 µM (inactive)
GI50 [57]: 39.8 µM (inactive)
GI50 [19]: 7.01 µM (inactive)
GI50 [58]: 4.52 µM (inactive)
GI50 [20]: 4.36 µM (inactive)
GI50 [21]: 4.71 µM (inactive)
GI50 [22]: 2.51 µM (inactive)
GI50 [23]: 13.4 µM (inactive)
GI50 [24]: 3.56 µM (inactive)
GI50 [25]: 17.8 µM (inactive)
GI50 [26]: 3.31 µM (inactive)
GI50 [27]: 8.79 µM (inactive)
GI50 [28]: 4.09 µM (inactive)
GI50 [29]: 4.45 µM (inactive)
GI50 [30]: 4.63 µM (inactive)
GI50 [31]: 4.3 µM (inactive)
GI50 [32]: 2.91 µM (inactive)
GI50 [33]: 9.55 µM (inactive)
GI50 [34]: 3.92 µM (inactive)
GI50 [35]: 6.4 µM (inactive)
GI50 [36]: 10.9 µM (inactive)
GI50 [37]: 5.06 µM (inactive)
GI50 [59]: 5.19 µM (inactive)
GI50 [60]: 21.4 µM (inactive)
GI50 [38]: 1.34 µM (inactive)
GI50 [39]: 2.87 µM (inactive)
GI50 [40]: 9.27 µM (inactive)
GI50 [41]: 3.12 µM (inactive)
GI50 [42]: 4.14 µM (inactive)
GI50 [43]: 3.76 µM (inactive)
GI50 [44]: 10.3 µM (inactive)
GI50 [61]: 3.59 µM (inactive)
GI50 [45]: 6.18 µM (inactive)
GI50 [46]: 7.71 µM (inactive)
GI50 [47]: 3.02 µM (inactive)
GI50 [62]: 3.48 µM (inactive)
GI50 [48]: 9.14 µM (inactive)
GI50 [49]: 4.76 µM
GI50 [63]: 8.49 µM (inactive)
GI50 [50]: 3.64 µM (inactive)
GI50 [51]: 4.27 µM (inactive)
GI50 [52]: 7.94 µM (inactive)
GI50 [64]: 11.9 µM (inactive)
GI50 [65]: 2.74 µM (inactive)
GI50 [53]: 4.2 µM (inactive)
GI50 [54]: 3.98 µM (inactive)
GI50 [66]: 8.07 µM (inactive)
GI50 [55]: 5.86 µM (inactive)
GI50 [67]: 23.6 µM (inactive)
GI50 [68]: 3.47 µM (inactive)
